Results reported in ChEMBL document CHEMBL1143692, “Modulating paclitaxel bioavailability for targeting prostate cancer” (Bioorg Med Chem, 2007).
pIC50: −log10 of the molar value. Starred links: 1 amine or outer side, 2 acyl side, 3 side chain; linkers in the order of their positions; H or OH if unused. Residues, ends and D or L forms follow the SMILES beside them. *: point of attachment. Morpholide = C1CN(*)CCO1; CO = O=C([*:1])[*:2]

Assays:
TSU [1] = test: Growth inhibition of human TSU cells at 1 nM; assay type: functional
TSU [2] = test: Toxicity against human TSU cells upto 100 uM; assay type: functional, cell-based
DU-145 [3] = test: Toxicity against human DU145 cells upto 100 uM; assay type: functional, cell-based
CWR22R = test: Toxicity against human CWR22Rv1 cells upto 100 uM; assay type: functional, cell-based
[4] = test system: prostate-specific antigen; test: Half life in Tris buffer at pH 7.8, 37 degC for 48 hrs in presence of prostate-specific antigen at 100 uM; assay type: ADME, Prostate gland; details: Tris buffer with prostate-specific antigen
DU-145 [5] = test: Growth inhibition of human DU145 cells; assay type: functional, cell-based
[6] = Cytotoxicity against human CWR22Rv1 cells after 96 hrs; assay type: functional, cell-based, CWR22R; details: 22Rv1, 96 h
Plasma = test: Degradation in plasma at 100 uM after 48 hrs; assay type: functional, Homo sapiens
Serum = test: Degradation in serum at 100 uM after 48 hrs; assay type: functional, Homo sapiens
[7] = Growth inhibition of human CWR22Rv1 cells; assay type: functional, cell-based, CWR22R; details: 22Rv1
TSU [8] = test: Growth inhibition of human TSU cells; assay type: functional, cell-based
[9] = Half life in serum at 100 uM after 48 hrs at 37 degC; assay type: ADME, cell-free; details: human
Homo sapiens [10] = organism: Homo sapiens; test: Activity at prostate-specific antigen hydrolysis at pH 7.8; assay type: tissue-based; details: Prostate gland
Homo sapiens [11] = organism: Homo sapiens; test: Ratio of […] for prostate-specific antigen; details: Prostate gland

half-life at 100 µM [4] [h] | half-life at 100 µM [9] [h] | Structure (SMILES) | inhibition at 0.001 µM (TSU [1]) [%] | Percent degraded (Plasma) [%] | Activity (Serum) [%] | also measured
 |  | CC(=O)O[C@H]1C(=O)[C@@]2(C)[C@H]([C@H](OC(=O)c3ccccc3)[C@]3(O)C[C@H](OC(=O)[C@H](O)[C@@H](NC(=O)c4ccccc4)c4ccccc4)C(C)=C1C3(C)C)[C@]1(OC(C)=O)CO[C@@H]1C[C@@H]2O [PACLITAXEL] | 90 |  |  | 
 |  | NCCCC[C@H](NC(=O)[C@H](CO)NC(=O)[C@H](CO)NC(=O)N1CCOCC1)C(=O)N[C@@H](Cc1ccc(O)cc1)C(=O)N[C@@H](CCC(N)=O)C(=O)O ({Morpholide-CO}-SSKYQ-OH) |  |  |  | Activity (TSU [2]): Not toxic; Activity (DU-145 [3]): Not toxic; Activity (CWR22R): Not toxic
6 |  | CC(=O)O[C@H]1C(=O)[C@]2(C)[C@@H](O)C[C@@H]3OC[C@]3(OC(C)=O)[C@@H]2[C@H](OC(=O)c2ccccc2)[C@]2(O)C[C@@H](OC(=O)[C@H](OC(=O)N(C)CCNC(=O)[C@H](CCC(N)=O)NC(=O)[C@H](Cc3ccc(O)cc3)NC(=O)[C@H](CCCCN)NC(=O)[C@H](CO)NC(=O)[C@H](CO)NC(=O)N3CCOCC3)[C@@H](NC(=O)c3ccccc3)c3ccccc3)C(C)=C1C2(C)C |  | <3 | <2 | pIC50 (DU-145 [5]): > 9.00; pIC50 [6]: 6.00; pIC50 [7]: > 9.00; pIC50 (TSU [8]): > 9.00
10 |  | CC(=O)O[C@H]1C(=O)[C@]2(C)[C@@H](O)C[C@@H]3OC[C@]3(OC(C)=O)[C@@H]2[C@H](OC(=O)c2ccccc2)[C@]2(O)C[C@@H](OC(=O)[C@H](OC(=O)N(C)CCNC(=O)[C@H](CCC(N)=O)NC(=O)[C@H](CC(C)C)NC(=O)[C@H](CCCCN)NC(=O)[C@H](CO)NC(=O)[C@H](CO)NC(=O)[C@H](Cc3c[nH]cn3)NC(=O)N3CCOCC3)[C@@H](NC(=O)c3ccccc3)c3ccccc3)C(C)=C1C2(C)C |  | <3 | <2 | 
14 | 1.5 | CC(=O)O[C@H]1C(=O)[C@]2(C)[C@@H](OC(=O)OCc3ccc(NC(=O)[C@H](CCC(N)=O)NC(=O)[C@H](CC(C)C)NC(=O)[C@H](CCCCN)NC(=O)[C@H](CO)NC(=O)[C@H](CO)NC(=O)[C@H](Cc4c[nH]cn4)NC(=O)N4CCOCC4)cc3)C[C@@H]3OC[C@]3(OC(C)=O)[C@@H]2[C@H](OC(=O)c2ccccc2)[C@]2(O)C[C@@H](OC(=O)[C@H](O)[C@@H](NC(=O)c3ccccc3)c3ccccc3)C(C)=C1C2(C)C | 30 | 7 | 92 | Km (Homo sapiens [10]): 216 µM; kcat (Homo sapiens [10]): 0.00585 s⁻¹; kcat/Km (Homo sapiens [11]): 27 M⁻¹ s⁻¹
12 | 1 | CC(=O)O[C@H]1C(=O)[C@]2(C)[C@@H](O)C[C@@H]3OC[C@]3(OC(C)=O)[C@@H]2[C@H](OC(=O)c2ccccc2)[C@]2(O)C[C@@H](OC(=O)[C@H](OC(=O)OCc3ccc(NC(=O)[C@H](CCC(N)=O)NC(=O)[C@H](CC(C)C)NC(=O)[C@H](CCCCN)NC(=O)[C@H](CO)NC(=O)[C@H](CO)NC(=O)[C@H](Cc4c[nH]cn4)NC(=O)N4CCOCC4)cc3)[C@@H](NC(=O)c3ccccc3)c3ccccc3)C(C)=C1C2(C)C | 30 | 10 | 87 | 
